Experimental data from patent US20120178720A1, “Bisphosphonates as Inhibitors of Acid Sphingomyelinase” (priority 2009, published 2012).
Where two headings read alike, the source gives them in different places.

How the values were obtained:
aSMase = molecular target: T1, aSMase (Rattus norvegicus, UniProt F7ETC0); experiment: fluorescent aSMase assay with HMU-PC substrate; assay type: biochemical; conditions: for IC50: read-out: IC50 inhibition of aSMase
T1 construct: Crude preparations containing aSMase or nSMase were made from stripped rat brains; from tissue; host or cells: rat brain
T1 sequence (F7ETC0 1-626): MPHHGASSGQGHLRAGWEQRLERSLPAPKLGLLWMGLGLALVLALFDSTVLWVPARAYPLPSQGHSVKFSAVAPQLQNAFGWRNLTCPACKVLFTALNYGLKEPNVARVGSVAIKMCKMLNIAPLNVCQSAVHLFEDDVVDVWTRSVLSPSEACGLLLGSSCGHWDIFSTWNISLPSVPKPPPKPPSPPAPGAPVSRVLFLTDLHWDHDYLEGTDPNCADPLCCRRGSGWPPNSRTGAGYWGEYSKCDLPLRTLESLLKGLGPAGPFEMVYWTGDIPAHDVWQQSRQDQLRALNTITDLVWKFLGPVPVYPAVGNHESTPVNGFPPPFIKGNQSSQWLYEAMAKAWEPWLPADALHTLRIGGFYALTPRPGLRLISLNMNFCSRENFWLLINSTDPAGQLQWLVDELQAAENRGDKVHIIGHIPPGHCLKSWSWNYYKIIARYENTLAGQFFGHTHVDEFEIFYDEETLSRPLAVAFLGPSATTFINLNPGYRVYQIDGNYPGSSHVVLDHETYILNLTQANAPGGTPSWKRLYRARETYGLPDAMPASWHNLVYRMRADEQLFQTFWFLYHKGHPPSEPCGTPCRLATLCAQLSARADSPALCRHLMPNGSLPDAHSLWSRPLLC
Experimental: Enzyme assays: Crude preparations containing aSMase or nSMase were made from stripped rat brains, as described before. […] The fluorescent aSMase assay was performed in a 384-well-plate using the HMU-PC (6-Hexadecanoylamino-4-methylumbelliferyl-phosphorylcholine) substrate. Reaction mixtures consisted of 13.3 μL HMU-PC, 13.3 μL reaction-buffer (100 mM NaOAc, pH 5.2, 0.2% (w/v) Na—TC, […], 0.2% (v/v) Triton X-100) and 13.3 μL enzyme preparation. Inhibitors were added in various concentrations and the reactions were incubated for 3 hours at 37° C. in a plate reader (FLUOstar OPTIMA, BMG labtech). The fluorescence of HMU (6-Hexadecanoylamino-4-methylumbelliferone) was measured (excitation 380 nm, emission 460 nm) in real time. Assays using the radio-labelled sphingomyelin gave the same results.

[1] = system: α-galactosidase A (α-Gal A); conditions: sub-inhibitory intracellular concentrations; cited from earlier work
[2] = system: isolated, ventilated and perfused rat lungs; conditions: 10 μM; cited from earlier work
[3] = read-out: Inhibition [%] at 20 μM (aSMase, initial phosphonate collection)
[4] = read-out: Inhibition [%] at 20 μM (aSMase, initial bisphosphonate collection)

Row | Structure (SMILES) | inhibition at 20 µM (aSMase; [4]) [%] | IC50 (aSMase) [µM] | other results
1 | CCCCP(=O)(O)O [Compound 2] |  |  | inhibition at 20 µM (aSMase; [3]): 2%
2 | NC(CP(=O)(O)O)P(=O)(O)O (centres unmarked) [Compound 3] |  |  | inhibition at 20 µM (aSMase; [3]): 47%
3 | O=P(O)(O)CN(CP(=O)(O)O)CP(=O)(O)O [Compound 4] |  |  | inhibition at 20 µM (aSMase; [3]): 0%
4 | O=P(O)(O)CN(CCN(CP(=O)(O)O)CP(=O)(O)O)CCN(CP(=O)(O)O)CP(=O)(O)O [Compound 5] |  |  | inhibition at 20 µM (aSMase; [3]): -5%
5 | NCCCCCC(O)(P(=O)(O)O)P(=O)(O)O [Compound 6] | 54 |  | 
6 | CCCCCC(N)(P(=O)(O)O)P(=O)(O)O [Compound 7a] | 92 | 4.66 ± 1.07 | 
7 | CCCCCCCC(N)(P(=O)(O)O)P(=O)(O)O [Compound 7b] | 93 | 0.04 ± 0.01 | aSMase inhibitory potency relative to PtdIns-3,5P2 (aSMase): about one order of magnitude more potent than PtdIns-3,5P2
8 | CC(NCC(=O)O)(P(=O)(O)O)P(=O)(O)O [Compound 8] | 62 |  | 
9 | CCCCNC(P(=O)(O)O)P(=O)(O)O [Compound 9] | 76 |  | 
10 | O=P(O)(O)C(Nc1ccccc1)P(=O)(O)O [Compound 10] | 8 |  | 
11 | C=CCN(CC=C)C(P(=O)(O)O)P(=O)(O)O [Compound 11] | 32 |  | 
12 | CC(C)CN(CC(C)C)C(P(=O)(O)O)P(=O)(O)O [Compound 12] | 2 |  | 
13 | O=P(O)(O)C(N(CO)CO)P(=O)(O)O [Compound 13] | 36 |  | 
14 | CN(C)C(P(=O)(O)O)P(=O)(O)O [Compound 14] | 24 |  | 
15 | CCCCCCCCCC(OP(=O)(OC)OC)P(=O)(OC)OC (centres unmarked) [Compound 16, Decyl-1-dimethylphosphate-1-dimethylphosphohonate] |  | > 100 | activity towards aSMase (aSMase): totally inactive
16 | CCCCCCCCCC(OP(=O)(O)O)P(=O)(O)O (centres unmarked) [Compound 17, Decyl-1,1-phosphate phosphonate] |  | 0.35 ± 0.06 | activity towards aSMase (aSMase): as active as its bisphosphonate analogue 15b
17 | CCCCCC(N(C)C)(P(=O)(O)O)P(=O)(O)O [Compound 19a] |  | 9.5 ± 4 | 
18 | CCCCCCCCCC(N(C)C)(P(=O)(O)O)P(=O)(O)O [Compound 19b, 1-dimethylaminodecyl-1,1-bisphosphonicacid] |  | 0.18 ± 0.03 | 
19 | O=P(O)(O)C(O)(Cn1ccnc1)P(=O)(O)O [Compound 20, zoledronic acid, reference compound] |  | 5.08 ± 0.74 | 
20 | OC[C@H]1NC[C@H](O)[C@@H](O)[C@H]1O [DGJ, 1-deoxy-galactonojirimycin] |  |  | stimulation of α-Gal A in cells [1]: seven- to eight-fold
21 | CN(C)CCCN1c2ccccc2CCc2ccccc21 [imipramine] |  |  | attenuation of PAF-induced oedema formation [2]: attenuated but not completely prevented oedema formation
